Entries after “also recorded” stand apart in the source; their conditions may differ. Read-outs that look alike come from different tables or passages of the source.
Tests used:
5xFAD mice [1] = test: Quantitative confocal immunohistochemistry (Q-IHC) of hippocampal sections; assay type: in vivo, mouse
Protocol: The 5xFAD mice bear five mutations linked to AD. Three of these are in the App695 gene [Swedish (APP K670N/M671L), Florida (I716V), London (V717I)], and two are in the PSEN1 gene [L286V, M146L]. Male 5xFAD breeder mice were obtained from Jackson Laboratories (#034848-JAX, Bar Harbor, ME, USA) and crossed with female 6XC57BL6 mice. Genotyping was performed by PCR. First-generation pups were used for all experiments with 5xFAD transgenic (Tg) and WT littermate control mice.
(§1) diAcCA or control vehicle was administered three times per week for 3 months to 5xFAD Tg or WT littermate control mice starting at approximately 5 months of age by oral gavage (designated here as “per os” or PO). Three different doses were used (10 mg/kg, 20 mg/kg, or 50 mg/kg). diAcCA was dissolved in olive oil vehicle, a non-polar organic solvent. For vehicle control, we administered olive oil alone. A total of 45 animals were used in this study, with 7–8 animals in each group.
For euthanasia, animals were deeply anesthetized with isoflurane and then transcardially perfused with ice-cold phosphate-buffered saline (PBS) followed by 4% paraformaldehyde (PFA) for fixation. Brains were isolated and post-fixed in 4% PFA overnight at 4 °C. The next day, brains were washed and transferred to 30% sucrose at 4 °C until sectioning. Every brain then received a masked code for the following steps, and the code was only broken after all quantifications were completed.
Sagittal sections (40 μm-thick) were prepared using a vibratome (Leica VT1200S) and incubated in blocking buffer (5% goat serum, 0.5% Triton X-100 in PBS) for 1 h at room temperature to prevent non-specific binding. Following blocking, floating sections were incubated in their respective primary antibody solutions on a shaker overnight at 4 °C. Antibodies against the following proteins were used in this study: NeuN (D4G4O, 1:500, rabbit mAb #24307, Cell Signaling Technology, Danvers, MA, USA), Synapsin I (D12G5, 1:500, rabbit mAb #5297, Cell Signaling Technology), phosphor (Ser202, Thr205)-tau (AT8, 1:500, mAb #MN1020, ThermoFisher Scientific, Waltham, MA, USA), glial fibrillary acidic protein (GFAP) (GA5, 1:500, MAB360, Millipore Sigma, Carlsbad, CA, USA), ionized calcium binding adaptor molecule 1 (Iba1) (EPR16589, 1:1000, #ab178847, Abcam, Waltham, MA, USA), human nuclear antigen (HuNu) (1:500, mouse mAb #191181, Abcam), and caspase-1 (1:50, rabbit pAb #AB1871, Sigma Aldrich, St. Louis, MO, USA). For Aβ staining, floating sections were pre-treated with 90% formic acid (28905, Thermo Scientific) for 1 min at room temperature. They were then rinsed and blocked, following which they were incubated in anti-β-amyloid 17–24 antibody (4G8, 1:1000, #800708, BioLegend, San Diego, CA, USA) on a shaker overnight at 4 °C.
The next day, immunostaining was performed on brain sections after 3 washes in PBS and incubation in the appropriate secondary antibody solution on a shaker for 2 h at room temperature. Secondary antibodies included Alexa 488 (A11008, 1:500, goat anti-rabbit, Life Technologies, Carlsbad, CA, USA) and Alexa 555 (A21424, 1:500, goat anti-mouse, Life Technologies). The sections were again washed with PBS 3 times, mounted on Superfrost plus slides (12-550-15, Fisher Scientific, Waltham, MA, USA) and dried at room temperature. The slides were then coated with Vectashield plus antifade mounting medium, stained with nuclear dye DAPI (H-2000, Vector Laboratories, San Francisco, CA, USA), and a coverslip (12541057, Fisher Scientific) was applied. For each brain, 3–6 images were acquired for each individual marker using a confocal fluorescence microscope (Nikon Eclipse Ti2) (Figure 1, Figure 2 and Figure 3, Supplementary Figure S1). Post image processing, quantification was performed using Fiji ImageJ (1.54f). For the Iba1-stained slides, a mask was made of cells co-labeled for HuNu and Iba1, and then caspase 1 staining was measured. […]

[2] = Brain levels of CA from prior plasma/brain PK data; assay type: in vivo; details: for Cmax: mouse, read-out: predicted Cmax in the brain
Protocol: We also determined the stability and bioavailability of diAcCA compared to CA. For this purpose, individual mice were administered CA or diAcCA IV or via oral gavage/PO. For CA, the doses were 3 mg/kg for the IV route and 10 mg/kg for oral gavage/PO, and for diAcCA 10 mg/kg by oral gavage/PO. Plasma concentrations were evaluated at ten different time points over the next 72 h (raw data shown in Tables S1 and S2, Supplementary Materials).
The extensive existing PK data obtained on plasma and brain samples for CA, correlated with prior in vivo efficacy data for CA [26, 33, 49], allowed us to calculate the therapeutic dose range that we wanted to test here for diAcCA.

5xFAD mice [3] = test: Contextual and cued conditioned fear test; assay type: in vivo, mouse; details: diAcCA PO for 3 months
Protocol: as §1
Contextual and cued learning processes in mice rely on the hippocampus and amygdala, respectively. Fear conditioning is used to evaluate both of these processes. During the conditioning period, mice are trained to associate a context (distinctive environment) and a conditioned stimulus (CS, neutral stimulus consisting of a tone and light) with an unpleasant foot shock to which the mice learn to respond by freezing their movement. Here, we evaluated hippocampal function using the contextual and cued conditioned fear test. […]
On day 1, the mice were acclimatized to the chambers in a 5 min session with no shock. […] On day 3, a 5 min trial took place in the original training chamber (context test) and contextual conditioning was evaluated by observing freezing behavior. […]

[4] = 5xFAD hippocampus, 10, 20 or 50 mg/kg PO three times a week for 3 months vs vehicle

With `CC(=O)Oc1c(C(C)C)cc2c(c1OC(C)=O)[C@@]1(C(=O)O)CCCC(C)(C)[C@@H]1CC2` [diAcCA] the “GFAP MFI, astrocytes” value (5xFAD mice [1]; [4]) was “significantly improved; also recorded: reduced GFAP MFI”, the “Iba1 integrated density (ID), microglial density” value (5xFAD mice [1]; [4]) was “significantly improved; also recorded: improved IBA ID” and the “NeuN mean fluorescence intensity (MFI), neuronal density” value (5xFAD mice [1]; [4]) was “significantly improved; also recorded: restored NeuN MFI (representing neuronal number) to near normal levels”. The “Synapsin I MFI, presynaptic density” value (5xFAD mice [1]; [4]) was “significantly improved; also recorded: restored Synapsin I MFI (located in the presynaptic terminal of the synapse) to near normal levels”, the “percent area of Aβ accumulation (4G8)” value (5xFAD mice [1]; [4]) was “significantly reduced the area of Aβ accumulation; also recorded: significantly reduced the area of Aβ aggregates” and the “percentage area of pTau aggregates (AT8)” value (5xFAD mice [1]; 5xFAD hippocampus, each treatment dose (10, 20, 50 mg/kg PO, 3 months) vs vehicle) was “remarkable decrease in the area of pTau aggregates; also recorded: dramatically reduced the area of pTau aggregates”. For the same compound, the “time to reach neurotherapeutic levels in the brain” value ([2]; after conversion of diAcCA to CA) was “less than 1 h”, the Cmax ([2]; diAcCA 10 mg/kg PO) was roughly 0.6 µM and the Cmax ([2]; diAcCA 20 mg/kg PO) was roughly 1.2 µM. For the same compound, the Cmax ([2]; diAcCA 50 mg/kg PO) was roughly 3 µM and the “context test of conditioned fear, freezing behavior” value (5xFAD mice [3]) was “showed freezing behavior similar to WT mice”.

Source: paper PMC11939361, “diAcCA, a Pro-Drug for Carnosic Acid That Activates the Nrf2 Transcriptional Pathway, Shows Efficacy in the 5xFAD Transgenic Mouse Model of Alzheimer’s Disease” (Antioxidants, 2025)
